Experimental data taken from BindingDB's records for patent US20240083888 (Reistone Biopharma Company, 2024).

Target: Dipeptidyl peptidase 1 (Homo sapiens, UniProt P53634)
Experiment: In Vitro Inhibitory Assay
Method: The compound was diluted with DMSO to a 384-well echo plate at a concentration of 100× of the highest concentration at the beginning of the experiment. 0.2 μL of the diluted compound was pipetted to a black-bottomed 384-well reaction plate for later use. […] The solution was added to the black-bottom 384-well reaction plate ([…]). 10 μL of the buffer was added for the vehicle control group. The plate containing compounds in its wells was incubated at room temperature for 30 minutes.

Dipeptidyl peptidase 1, sequence (P53634 25-134 limits assumed): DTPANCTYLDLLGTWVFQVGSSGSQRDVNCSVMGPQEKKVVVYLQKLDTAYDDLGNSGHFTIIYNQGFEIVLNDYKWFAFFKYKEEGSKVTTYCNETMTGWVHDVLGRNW
Dipeptidyl peptidase 1, sequence (P53634 231-394 limits assumed): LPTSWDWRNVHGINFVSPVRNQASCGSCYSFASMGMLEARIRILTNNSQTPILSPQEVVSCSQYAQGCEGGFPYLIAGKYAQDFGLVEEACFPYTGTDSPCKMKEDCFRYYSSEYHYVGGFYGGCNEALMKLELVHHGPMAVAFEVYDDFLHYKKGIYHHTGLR
Dipeptidyl peptidase 1, sequence (P53634 395-463 limits assumed): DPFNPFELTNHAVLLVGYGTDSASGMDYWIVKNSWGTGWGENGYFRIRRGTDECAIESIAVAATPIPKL

Q: Which IC50 does the source give for `N#C[C@H](Cc1ccc2c(c1)CC(=O)N(c1ccc(F)cc1)C2)NC(=O)C1(N)CCCCC1` [US20240083888, Compound 58] here?
A: Its IC50 is 17 nM.
